From ChEMBL document CHEMBL3217629, “Discovery of novel morpholinoquinoxalines as PI3K inhibitors by pharmacophore-based screening” (Medchemcomm, 2012) come the findings set out here.

In assay [1] the test system is HCT-116. Nature of the assay: cells. As to conditions: Homo sapiens, HCT-116, 72 h.
For assay [2], the system named is PC-3. Nature of the assay: cells. As to conditions: Homo sapiens, PC-3, 72 h.
Description: Cytotoxicity against human PC3 cells after 72 hrs by MTT assay
Assay [3] deals with Phosphatidylinositol 4,5-bisphosphate 3-kinase catalytic subunit alpha isoform (Homo sapiens, UniProt P42336). Nature of the assay: Inhibition of recombinant human PI3Kalpha using diC8-PI(4,5)P2 as substrate after 3 hrs by fluorescence polarization method. (In general: Fluorescence polarisation rises when a labelled molecule tumbles more slowly, as on binding a larger partner.)
Sequence of Phosphatidylinositol 4,5-bisphosphate 3-kinase catalytic subunit alpha isoform (P42336 whole entry, canonical isoform): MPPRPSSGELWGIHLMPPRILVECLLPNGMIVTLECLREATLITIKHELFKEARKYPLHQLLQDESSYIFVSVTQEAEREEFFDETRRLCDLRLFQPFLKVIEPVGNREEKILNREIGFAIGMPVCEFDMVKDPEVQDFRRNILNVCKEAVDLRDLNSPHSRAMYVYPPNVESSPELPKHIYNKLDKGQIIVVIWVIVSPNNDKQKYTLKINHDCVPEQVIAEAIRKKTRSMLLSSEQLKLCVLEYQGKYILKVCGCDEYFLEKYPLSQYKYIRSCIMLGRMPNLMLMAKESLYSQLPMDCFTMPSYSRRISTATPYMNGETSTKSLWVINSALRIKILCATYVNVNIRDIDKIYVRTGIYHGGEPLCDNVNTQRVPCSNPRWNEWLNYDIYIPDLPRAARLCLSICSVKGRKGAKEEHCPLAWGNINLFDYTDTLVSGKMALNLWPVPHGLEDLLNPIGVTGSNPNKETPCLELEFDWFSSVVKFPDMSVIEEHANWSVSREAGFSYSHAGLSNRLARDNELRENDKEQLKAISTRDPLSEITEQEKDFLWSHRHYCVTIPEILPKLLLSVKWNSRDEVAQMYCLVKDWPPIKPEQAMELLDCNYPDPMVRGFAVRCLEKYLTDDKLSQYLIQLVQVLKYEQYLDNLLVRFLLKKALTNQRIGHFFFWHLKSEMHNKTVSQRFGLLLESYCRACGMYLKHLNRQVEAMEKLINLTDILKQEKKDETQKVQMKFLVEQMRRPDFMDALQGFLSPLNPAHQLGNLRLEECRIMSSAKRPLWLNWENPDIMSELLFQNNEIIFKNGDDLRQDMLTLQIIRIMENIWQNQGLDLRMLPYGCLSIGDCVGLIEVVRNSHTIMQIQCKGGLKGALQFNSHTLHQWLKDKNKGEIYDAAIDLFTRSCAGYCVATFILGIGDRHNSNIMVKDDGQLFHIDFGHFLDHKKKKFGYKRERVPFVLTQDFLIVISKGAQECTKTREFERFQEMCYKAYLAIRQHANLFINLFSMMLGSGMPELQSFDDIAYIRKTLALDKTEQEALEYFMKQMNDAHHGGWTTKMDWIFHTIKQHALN

Assay [4] deals with HL-60. Nature of the assay: Cytotoxicity against human HL60 cells after 72 hrs by MTT assay. The format is functional, cell-based. As to conditions: HL-60, 72 h. On the technique in general: Tetrazolium dyes change colour on reduction, which living cells bring about.
In assay [5] the test system is A549. Nature of the assay: Cytotoxicity against human A549 cells after 72 hrs by MTT assay. The format is functional, cell-based. Particulars: A549, 72 h.

Where only a bound is given, the exact number is not on record here.

As usually defined, the IC50 is the concentration needed to halve the response being measured. On to `Cc1ccc(S(=O)(=O)c2nc3ccccc3nc2N2CCOCC2)cc1`, for which the IC50 in assay [1] is 10.5 µM; in assay [2], 9.34 µM; in assay [3], 1.58 µM; in assay [4], 0.95 µM; in assay [5], 3.3 µM.

Turning to `COc1ccc(S(=O)(=O)c2nc3ccccc3nc2N2CCOCC2)cc1`, the IC50 in assay [1] was > 50 µM; in assay [2], 0.88 µM; in assay [3] it was 1.4 µM; in assay [4], 4.8 µM; in assay [5], 19.4 µM.

Regarding `O=S(=O)(c1ccc(Br)cc1)c1nc2ccccc2nc1N1CCOCC1`, the IC50 in assay [1] is 35 µM; in assay [2], 25.4 µM; in assay [3], 2.89 µM; in assay [4] it was 3.41 µM; in assay [5] it was 6.65 µM.

Take `O=S(=O)(c1ccc(F)cc1)c1nc2ccccc2nc1N1CCOCC1`: the IC50 in assay [1] worked out at 3.61 µM; in assay [2] it was 3.4 µM; in assay [3], 2.49 µM; in assay [4], 1.74 µM; in assay [5] it was 5.64 µM.

In the case of `c1ccc(Sc2nc3ccccc3nc2N2CCOCC2)cc1`, the IC50 was 45.6 µM in assay [1]; > 50 µM in assay [2]; > 50 µM in assay [3]; 5.18 µM in assay [4]; 7.25 µM in assay [5].

As for `O=S(=O)(c1ccccc1)c1nc2ccccc2nc1N1CCCCC1`, the IC50 was 6.48 µM in assay [1]; 26.9 µM in assay [2]; 21.6 µM in assay [3]; 27.1 µM in assay [4]; > 50 µM in assay [5].
